Experimental data reported in patent publication US7626021B2, “Fused ring heterocycle kinase modulators” (SGX Pharmaceuticals, Inc., priority 2004, dated 2009).

Target: T1, Abl T315I KD (unphosphorylated c-Abl T315I kinase domain) (Mus musculus, UniProt P00520, T315I)
T1 construct: purified and unphosphorylated T315I Abl kinase domain; made in house; host or cells: E. coli BL21(DE3)
T1 sequence (P00520 242-493 T315I limits assumed): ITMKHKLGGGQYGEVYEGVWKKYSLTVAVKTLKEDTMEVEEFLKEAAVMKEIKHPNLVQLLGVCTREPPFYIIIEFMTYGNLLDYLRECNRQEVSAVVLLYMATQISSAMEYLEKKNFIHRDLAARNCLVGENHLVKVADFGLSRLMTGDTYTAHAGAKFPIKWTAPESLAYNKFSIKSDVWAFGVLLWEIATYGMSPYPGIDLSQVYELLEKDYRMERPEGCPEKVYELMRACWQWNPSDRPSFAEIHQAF
Experiment: c-Abl T315I (unphosphorylated kinase domain) enzyme assay, PK/LDH coupled
Format: biochemical
Details: mutant Abl kinase domain at zero phosphorylation state; read-out: Abl_T215l—0P IC50
From the text: Although the first of these examples uses the kinase domain of a mutant form of Abl T315I (“Abl T315I KD”), the kinase assays may use various forms of mutant and wild type enzymes, including, for example, the entire protein, the kinase domain, or a portion thereof (e.g. Abl Y393F). The kinases used in the assays may also be of varying phosphorylation states. In the c-Abl example, a mutant kinase at a zero phosphorylation state was used.
c-Abl Pyruvate Kinase/Lactate Dehydrogenase Coupled Enzyme Assay
In the c-Abl Pyruvate Kinase (PK)/Lactate Dehydrogenase (LDH) Coupled Assay the protein kinase dependant phosphorylation of a substrate peptide was coupled to the oxidation of NADH. The oxidation of NADH to NAD+ was detected by monitoring a decrease in absorbance at 340 nm.
Materials: Abl substrate peptide=EAIYAAPFAKKK SEQ ID NO:1)-OH (Biopeptide, San Diego, Calif.); βNADH (Sigma Cat#N-8129, FW=709.4); 2M MgCl2; 1M HEPES buffer, pH 7.5; Phosphoenolpyruvate (PEP) (Sigma Cat#P-7002, FW=234); Lactate dehydrogenase (LDH) (Worthington Biochemical Cat#2756); Pyruvate Kinase (PK) (Sigma Cat#P-9136); ATP (Sigma Cat#A-3377, FW=551); Greiner 384-well UV star plate; and purified and unphosphorylated T315I Abl kinase domain.
Stock Solutions: 10 mM NADH (7.09 mg/ml in miliQH2O) made fresh daily; 10 mM Abl substrate peptide (13.4 mg/ml in miliQH2O) stored at −20° C.; 100 mM HEPES buffer, pH 7.5 (5 ml IM stock+45 ml miliQH2O); 100 mM MgCl2 (5 ml 2M MgCl2+95 ml dH2O); 100 mM PEP (23.4 mg/ml in dH2O) stored at −20° C.; 10 mM ATP (5.51 mg/ml in dH2O) stored at −20° C. (diluted 50 μl into total of 10 ml miliQH2O daily=50 μM ATP working stock); 1000 U/ml PK (U/mg varies with lot) flash-frozen under liquid N2 and stored at −80° C.; and 1000 U/ml LDH (U/mg varies with lot) flash-frozen under liquid N2 and stored at −80° C.
Standard Assay Setup for 384-well format (50 μl reaction): 300 μM NADH; 10 mM MgCl2; 2 mM PEP; 45 U/ml PK; 60 U/ml LDH; 200 μM Abl substrate peptide; 2.5 μl test compound (in DMSO); 2 μg/ml Abl kinase domain; 10 μM ATP; 100 mM HEPES buffer. Positive controls contained DMSO with no test compound. Negative controls contained 5 μl of 0.5M EDTA (50 mM in the assay). The dephosphorylated form of the c-Abl T315I mutant was used in the biochemical screening assays. The kinase reaction was initiated at time t=0 by the addition of ATP.
Activity was measured by following the time-dependent loss of NADH by absorbance spectroscopy at 340 nm. The linear portion of the resulting progress curve was then analyzed by linear regression to get the activity in absorbance units/time, reported as the slope of that best fit line (moles/unit time can be calculated from using molar extinction coefficient for NADH at 340 nm, 6250M^−1cm^−1).
Data was evaluated using the equation: Z′=1-[3*(σ++σ−)/|μ+−μ−|] (Zhang, et al., 1999 J Biomol Screening 4(2) 67-73), where […] the mean and σ the standard deviation. The subscript designates positive or negative controls. The Z′ score for a robust screening assay should be 0.50. The typical threshold=μ+−3*σ+. Any value that falls below the threshold was designated a “hit”.
Dose response was analyzed using the equation: y=min+{(max−min)/(1+10^[compound]-logIC50)}, where y is the observed initial slope, max=the slope in the absence of inhibitor, min=the slope at infinite inhibitor, and the IC50 is the [compound] that corresponds to ½ the total observed amplitude (Amplitude=max−min).
To measure modulation, activation, or inhibition of Abl KD, a test compound was added to the assay at a range of concentrations. Inhibitors may inhibit Abl KD activity at an IC50 in the micromolar range, the nanomolar range, or, for example, in the subnanomolar range.

Structure (SMILES) | IC50 [nM]
COc1ccccc1-c1n[nH]c2ncc(-c3ccc(C(=O)N4CCOCC4)cc3)cc12 | < 1000
c1ccc(-c2n[nH]c3ncc(-c4ccc5[nH]ccc5c4)cc23)cc1 | < 1000
CCN1CCN(C(=O)c2cccc(-c3cnc4[nH]nc(-c5cc(F)ccc5OC)c4c3)c2)CC1 | < 1000
CCc1ccccc1-c1n[nH]c2ncc(-c3cccc(C(=O)N4CCOCC4)c3)cc12 | < 1000
COc1cc(-c2cnc3[nH]nc(-c4ccccc4)c3c2)ccc1O | < 1000
COc1ccccc1-c1n[nH]c2ncc(Br)cc12 | < 1000
O=C(c1cccc(-c2cnc3[nH]nc(-c4cccc5cccnc45)c3c2)c1)N1CCOCC1 | < 1000
COc1ccccc1-c1n[nH]c2ncc(-c3cccc(C(=O)N4CCN(C)CC4)c3)cc12 | < 1000
COc1ccccc1-c1cnc2[nH]nc(-c3ccccc3OC)c2c1 | < 1000
COc1ccccc1-c1n[nH]c2ncc(-c3cccc(C(=O)NC(C)C)c3)cc12 | < 1000
Oc1cccc(-c2cnc3[nH]nc(-c4ccccc4)c3c2)c1 | < 1000
Cc1ccsc1-c1n[nH]c2ncc(-c3cccc(C(=O)N4CCOCC4)c3)cc12 | < 1000
COc1ccccc1-c1n[nH]c2ncc(-c3cccc(C(=O)N4CCCC4)c3)cc12 | < 1000
COc1ccccc1-c1n[nH]c2ncc(-c3ccc(C(=O)N4CCCCC4)cc3)cc12 | < 1000
COc1ccccc1-c1n[nH]c2ncc(-c3cccc(C(=O)N4CCC(CO)CC4)c3)cc12 | < 1000
c1ccc(-c2n[nH]c3ncc(-c4cccnc4)cc23)cc1 | < 1000
COc1ccccc1-c1c[nH]c2ncc(-c3cccc(C(=O)N(C)C)c3)nc12 | < 1000

Structure (SMILES) | IC50 [nM]
CCOc1ccccc1-c1n[nH]c2ncc(-c3cccc(C(=O)N4CCOCC4)c3)cc12 | < 1000
Cc1cc(F)ccc1-c1n[nH]c2ncc(-c3cccc(C(=O)N4CCOCC4)c3)cc12 | < 1000
COc1ccccc1-c1n[nH]c2ncc(-c3cccc(C(=O)N(C)C)c3)cc12 | < 1000
COc1cc(-c2cnc3[nH]cc(-c4ccc(C)cc4)c3n2)ccc1O | < 1000
COc1ccccc1-c1n[nH]c2ncc(-c3cccc(S(=O)(=O)NC4CC4)c3)cc12 | < 1000
COc1ccccc1-c1n[nH]c2ncc(-c3ccc(O)c(C(=O)N4CCOCC4)c3)cc12 | < 1000
COc1ccccc1-c1n[nH]c2ncc(-c3ccc(C(=O)N4CCN(C)CC4)cc3)cc12 | < 1000
Cn1ccc2cc(-c3n[nH]c4ncc(-c5cccc(C(=O)N6CCOCC6)c5)cc34)ccc21 | < 1000
COc1ccccc1-c1n[nH]c2ncc(-c3cnc4[nH]n(C)c(=O)c4c3)cc12 | < 1000
O=C(c1cccc(-c2cnc3[nH]nc(-c4ccc5cc[nH]c5c4)c3c2)c1)N1CCOCC1 | < 1000
COc1ncc(-c2n[nH]c3ncc(-c4cccc(C(=O)N5CCOCC5)c4)cc23)c(OC)n1 | < 1000
COc1ccccc1-c1n[nH]c2ncc(-c3ccc(C(=O)N4CCCC4)cc3)cc12 | < 1000
COc1c(F)cccc1-c1n[nH]c2ncc(-c3cccc(C(=O)N4CCOCC4)c3)cc12 | < 1000
O=C(c1cccc(-c2cnc3[nH]nc(-c4ccncc4Cl)c3c2)c1)N1CCOCC1 | < 1000
COc1ccccc1-c1n[nH]c2ncc(-c3cccc(C(=O)N4CCN(CCN(C)C)CC4)c3)cc12 | < 1000
COc1ccccc1-c1n[nH]c2ncc(-c3ccc(C(=O)NC4CC4)cc3)cc12 | < 1000
COc1ccccc1-c1n[nH]c2ncc(-c3cccnc3)cc12 | < 1000
